{
  "source": "patent US8741951B2",
  "about": "“Non-steroidal compounds for androgen receptor modulation” (CNR—Consiglio Nazionale delle Ricerche, priority 2009, dated 2014)",
  "key": {"LNCaP cells": {"test_system": "LNCaP cells", "assay": "SRB in vitro chemosensitivity assay, LNCaP", "format": "cell-based", "protocol": "The cell lines were maintained as a monolayer at 37° C. and subcultured weekly. Culture medium was composed of RPMI 1640 supplemented with 10% fetal calf serum and 1% glutamine (Mascia Brunelli s.p.a., Milan, Italy). Cells were used in the exponential growth phase in all the experiments.\nCompounds were dissolved in acetone or DMSO (AITES) ([…]) and stored at −20° C. The cell culture containing acetone at the highest concentration was used as the control.\n(§1) Sulforhodamine B (SRB) assay was used according to the method by Skehan et al. (JNCI, 1990). Briefly, cells were collected by trypsinization, counted and plated at a density of 5,000 cells/well in 96-well flat-bottomed microtiter plates (100 μl of cell suspension/well). In the chemosensitivity assay, experiments were run in octuplicate, and each experiment was repeated three times. The optical density (OD) of cells was determined at a wavelength of 490 nm by a colorimetric plate reader.\n(§2) If ODtreated is above ODzero, treatment has induced a cytostatic effect, whereas if ODtreated is below ODzero, cell killing has occurred. The ODzero depicts the cell number at the moment of drug addition, the ODcontrol reflects the cell number in untreated wells and the ODtreated reflects the cell number in treated wells on the day of the assay.\nFIGS. 2-11 show the cytotoxic activity of the derivative compounds of the invention on the LNCaP and LNCaP-AR cell lines. The authors examined the antitumour activity of the compounds for which the synthesis is described above, in the hormone-sensitive prostate cancer cell line LNCaP and in its derivative cell line LNCaP-AR, expressing high level of AR and with hormone refractory prostate cancer (HRPC) features. The novel compounds were tested at the increasing concentrations of […], 0.2, 2.0, and 20.0 μM. The highest dose used was chosen on the basis of the clinically achievable peak plasma concentration reported in the literature for bicalutamide (Cockshott I D. Clin Pharmacokinet. 2004; 43(13): 855-78). After 144-hr exposure time the cytotoxic effect of the molecules was calculated according to the method of Monks et al. (Monks A, Scudiero D, Skehan P, et al. Feasibility of a high-flux anticancer drug screen using a diverse panel of cultured human tumor cell lines. J Natl Cancer Inst. 1991; 83: 757-66.)"}, "PC-3 cell line": {"test_system": "PC-3 cell line", "assay": "SRB cytotoxicity, PC-3", "format": "cell-based, human", "conditions": "PC-3 (no AR), 144 h, up to 20 μM", "protocol": "(§3) FIGS. 16-25: cytotoxic effect of compounds (R)-XXIII-2, (R)-XXIII-3, (R)-XXIII-4, (R)-XXIII-5, (R)-XXIII-6, (R)-XXIII-7, (R)-XXIII-8, (R)-XXIII-9, (R)-XXIII-10, (R)-XXIV-9 on PC-3 and DU-145 cell lines at different concentration (0.02, 0.2, 2, 20 μM) after 144 h exposure. On the x-axis is reported the concentration, while on the y-axis is reported the inhibition of the net growth (% net growth).\nas §1, §2"}, "DU145 cell line": {"test_system": "DU145 cell line", "assay": "SRB cytotoxicity, DU145", "format": "cell-based, human", "conditions": "DU145 (no AR), 144 h, up to 20 μM", "protocol": "as §3, §1, §2"}, "[1]": {"test_system": "normal stem cells derived from human peripheral blood stem cells", "assay": "Colony-forming cell assay (GM-CFU)", "format": "cell-based", "protocol": "The colony-forming cell assay was used as previously described [Matta M R, Mangianti S, Rizzi S, Ratta M, Campanini E, Fortuna A, et al. Pharmacological purging of minimal residual disease from peripheral blood stem cell collections of acute myloblastic leukaemia patients: preclinical studies. Exp Hematol 1997; 25:1261-1269]. In brief, for each molecule, 5×10^4 cells were plated in duplicate in a complete culture medium (MethoCult H4434, StemCell Technologies, Vancouver, Canada) containing different concentrations (0.2, 2, and 20 μmol/l) of the compound. After 14 days of incubation in a humidified atmosphere of 5% CO2 at the temperature of 37° C., granulocyte macrophage colony-forming unit (GM-CFU) aggregates of more than 50 cells were counted. Control cells were incubated under the same conditions but in drug-free medium."}, "[2]": {"test_system": "human hepatoblastoma cell line HepG2", "assay": "Cytotoxic activity on HepG2 (hepato-toxicity)", "format": "cell-based", "conditions": "HepG2, up to highest concentration tested", "protocol": "as §1, §2\nFIG. 27-36 show the cytotoxic activity of the drugs on the human hepatoblastoma cell line HepG2. The authors evaluated in vitro the potential hepato-toxicity of some of the novel compounds on HepG2 cell line, a human hepatoblastoma cell line that retains the specialized function of normal hepatocytes [Knowles B B, Howe C C, Aden D P. Human hepatocellular carcinoma cell lines secretes the major plasma proteins and hepatitis B surface antigen. Science 1980, 209:497-499; Aden D P, Vogel A, Plortkin S, Damjanov I, Knowles B B. Controlled synthesis of HBS Ag in a differentiated human liver carcinoma-derived cell line. Nature, 1979, 282:615-616]."}, "[3]": {"test_system": "human CW22-RV1 prostate carcinoma xenograft", "assay": "In vivo antitumor activity, CW22-RV1 xenograft s.c. in nude mice", "protocol": "CW-22Rv1, a human prostate carcinoma epithelial cell line were purchased from ATCC.\nIn vivo antitumor activity experiments with the compound (R)-XXIII-6 were carried out using female athymic Swiss nude mice 8 to 10 weeks of age (Charles River, Calco, Italy). Mice were maintained in laminar flow rooms, keeping temperature and humidity constant. Mice had free access to food and water. Experiments were approved by the Ethics Committee for Animal Experimentation of the Istituto Nazionale Tumori (Milan, Italy).\nHuman CW22-RV1 cells, a human prostate carcinoma epithelial cell line, derived from a xenograft that was serially propagated in mice after castration-induced regression and relapse of the parental, androgen-dependent CWR22 xenograft, were used for in vivo experiments. The prostate carcinoma cell line were inoculated by subcutaneous injection (s.c.) in the right flank of nude mice, at day 0. Treatment started at day 3 when tumor weights were around 60 mg.\nThe efficacy of the drug treatment was assessed as: (a) TWI % in treated versus control mice, calculated as TWI=100−(mean TW treated/mean TW control×100).\nThe toxicity of the drug treatment was assessed as: (a) BWL calculated as BWL=100−(mean BWdayx/mean BWday1×100), where day 1 is the first day of treatment and day x is any day after (mice were weighed twice/week throughout the experimental frame and in the table 3 the maximum BWL value was reported); and (b) lethal toxicity, i.e., any death in treated groups occurring before any control death (mice were inspected daily for mortality)."}},
  "note": "“Also recorded” adds a separate entry of the source.",
  "data": [
    {"smiles": "N#Cc1ccc(NC(=O)[C@](O)(Cc2cccs2)CS(=O)(=O)c2ccc(F)cc2)cc1C(F)(F)F", "note": "[(R)-XXIII-6]", "values": [
      {"measurement": "GI50", "setting": "LNCaP cells; Homo sapiens, LNCaP, 144 h", "value": 8.9, "unit": "µM"},
      {"measurement": "LC50", "setting": "LNCaP cells; LNCaP cells, 144 h exposure, up to 20 μM", "value": "n.r."},
      {"measurement": "cytotoxic effect (cytostatic / cytocidal), in words", "setting": "LNCaP cells; LNCaP, 144 h, up to 20 μM", "value": "suppress completely the cell growth"},
      {"measurement": "cytotoxic activity, in words", "setting": "PC-3 cell line", "value": "negligible cytotoxic activity"},
      {"measurement": "cytotoxic activity, in words", "setting": "DU145 cell line", "value": "negligible cytotoxic activity"},
      {"measurement": "inhibition of clonogenic growth of normal stem cells (mielotoxicity), in words", "setting": "[1]; 0.2, 2, 20 μmol/l, 14 days", "value": "does not seem to exert significant mielotoxicity; also recorded: weak cytostatic activity"},
      {"measurement": "GI50", "setting": "[1]; hematopoietic precursors, highest concentration tested 20 μmol/l", "value": "not being able to reach GI50 value"},
      {"measurement": "hepato-toxicity, in words", "setting": "[2]", "value": "did not display toxicity"},
      {"measurement": "Tox/Tot (deaths in treated mice before any control death)", "setting": "[3]; 100 mg/Kg p.o.", "value": "0/6"},
      {"measurement": "day of Max TWI % (day after tumor inoculum)", "setting": "[3]; 100 mg/Kg p.o.", "value": 23, "unit": "days"},
      {"measurement": "Max TWI %", "setting": "[3]; 100 mg/Kg p.o., (qdx5/wx2w) × 2 cycles", "value": 45, "unit": "%"},
      {"measurement": "Max BWL (maximum body weight loss in percentage)", "setting": "[3]; 100 mg/Kg p.o., during drug treatment", "value": 2, "unit": "%"},
      {"measurement": "tolerability, in words", "setting": "[3]; 100 mg/kg p.o.", "value": "generally well tolerated, with no signs of acute or delayed toxicity"},
      {"measurement": "antitumor activity / tumor weight, in words", "setting": "[3]; 100 mg/kg p.o., versus untreated mice", "value": "significant reduction in tumor weight; also recorded: effective in slowing tumor growth"}
    ]}
  ]
}
